{"source": "paper PMC8371902", "about": "“Phase 1 study of M2698, a p70S6K/AKT dual inhibitor, in patients with advanced cancer” (Journal of Hematology & Oncology, 2021)", "key": {"[1]": {"test": "Plasma pharmacokinetics of M2698, non-compartmental", "format": "in vivo, human", "description": "Plasma PK parameters on days 1 and 15 were calculated using non-compartmental methods."}, "[2]": {"system": "phospho-S6 (pS6) in tumor tissue", "test": "pS6 in tumor biopsies by immunohistochemistry, PK/PD models", "format": "in vivo, human", "from_the_text": "Supplementary Table S7. Parameter estimates for pharmacokinetic/ pharmacodynamic models of pS6 in tumor tissue using dose and area under the curve (AUCT, calculated as dose divided by apparent clearance at time of tissue biopsy) as exposure metrics\nlog-linear regression model of dose – tumor pS6: y ~ slope *log(Dose)\nEmax regression model of AUC – tumor pS6: y ~ (Emax *AUC) / (EC50 + AUC)"}, "[3]": {"system": "patients with advanced metastatic cancer", "test": "Association between PK and safety (electrocardiogram ∆QTcF, fasting glucose)", "format": "in vivo, human"}, "[4]": {"design": "method as in PMID 27186432", "conditions": "preclinical studies ref 21; cited from earlier work"}, "pS6 in tumor tissue": {"system": "pS6 in tumor tissue", "design": "method as in PMID 27186432", "conditions": "preclinical ref 21; cited from earlier work"}, "[5]": {"conditions": "day 15, monotherapy 110 mg, n=3"}, "[6]": {"conditions": "day 15, monotherapy 160 mg, n=5"}, "[7]": {"conditions": "day 15, monotherapy 200 mg, n=3"}, "[8]": {"conditions": "day 15, monotherapy 240 mg, n=7"}, "[9]": {"conditions": "day 15, monotherapy 320 mg, n=6"}, "[10]": {"conditions": "day 15, monotherapy 380 mg, n=2"}}}
{"smiles": "NC(=O)c1cccc2c(N[C@H](CN3CCC3)c3ccc(Cl)c(C(F)(F)F)c3)ncnc12", "note": "[M2698]", "values": [{"measurement": "Accumulation ratio (Cmax), Geo mean (GeoCV%)", "setting": "[1]; day 15, monotherapy 15 mg, n=3", "value": "2.57 (73.6)"}, {"measurement": "Cmax, GeoMean (GeoCV%)", "setting": "[1]; day 15, monotherapy 15 mg, n=3", "value": "136 (16.8) ng/mL"}, {"measurement": "tmax, median (range)", "setting": "[1]; day 15, monotherapy 15 mg, n=3", "value": "3.00 (2.97–7.50) hours"}, {"measurement": "AUC0–τ, Geo mean (GeoCV%)", "setting": "[1]; day 15, monotherapy 30 mg, n=3", "value": "5410 (17.8) ng∙h/mL"}, {"measurement": "Accumulation ratio (Cmax), Geo mean (GeoCV%)", "setting": "[1]; day 15, monotherapy 30 mg, n=3", "value": "3.19 (41.2)"}, {"measurement": "Cmax, GeoMean (GeoCV%)", "setting": "[1]; day 15, monotherapy 30 mg, n=3", "value": "279 (14.5) ng/mL"}, {"measurement": "tmax, median (range)", "setting": "[1]; day 15, monotherapy 30 mg, n=3", "value": "4.30 (1.93–6.02) hours"}, {"measurement": "AUC0–τ, Geo mean (GeoCV%)", "setting": "[1]; day 15, monotherapy 60 mg, n=5", "value": "10,000 (47.7) ng∙h/mL"}, {"measurement": "Accumulation ratio (Cmax), Geo mean (GeoCV%)", "setting": "[1]; day 15, monotherapy 60 mg, n=5", "value": "3.03 (60.4)"}, {"measurement": "Cmax, GeoMean (GeoCV%)", "setting": "[1]; day 15, monotherapy 60 mg, n=5", "value": "566 (48.5) ng/mL"}, {"measurement": "tmax, median (range)", "setting": "[1]; day 15, monotherapy 60 mg, n=5", "value": "5.07 (3.03–7.62) hours"}, {"measurement": "AUC0–τ, Geo mean (GeoCV%)", "setting": "[1]; day 15, monotherapy 75 mg, n=4", "value": "9440 (39.6) ng∙h/mL"}, {"measurement": "Accumulation ratio (Cmax), Geo mean (GeoCV%)", "setting": "[1]; day 15, monotherapy 75 mg, n=4", "value": "3.02 (3.2)"}, {"measurement": "Cmax, GeoMean (GeoCV%)", "setting": "[1]; day 15, monotherapy 75 mg, n=4", "value": "533 (47.5) ng/mL"}, {"measurement": "tmax, median (range)", "setting": "[1]; day 15, monotherapy 75 mg, n=4", "value": "4.05 (4.03–5.12) hours"}, {"measurement": "AUC0–τ, Geo mean (GeoCV%)", "setting": "[1]; [5]", "value": "15,500 (46.8) ng∙h/mL"}, {"measurement": "Accumulation ratio (Cmax), Geo mean (GeoCV%)", "setting": "[1]; [5]", "value": "3.38 (55.6)"}, {"measurement": "Cmax, GeoMean (GeoCV%)", "setting": "[1]; [5]", "value": "831 (43.3) ng/mL"}, {"measurement": "tmax, median (range)", "setting": "[1]; [5]", "value": "6.05 (3.00–6.07) hours"}, {"measurement": "AUC0–τ, Geo mean (GeoCV%)", "setting": "[1]; [6]", "value": "23,700 (43.7) ng∙h/mL"}, {"measurement": "Accumulation ratio (Cmax), Geo mean (GeoCV%)", "setting": "[1]; [6]", "value": "2.40 (36.8)"}, {"measurement": "Cmax, GeoMean (GeoCV%)", "setting": "[1]; [6]", "value": "1300 (45.1) ng/mL"}, {"measurement": "tmax, median (range)", "setting": "[1]; [6]", "value": "4.08 (1.93–6.00) hours"}, {"measurement": "AUC0–τ, Geo mean (GeoCV%)", "setting": "[1]; [7]", "value": "28,400 (91.6) ng∙h/mL"}, {"measurement": "Accumulation ratio (Cmax), Geo mean (GeoCV%)", "setting": "[1]; [7]", "value": "3.21 (63.5)"}, {"measurement": "Cmax, GeoMean (GeoCV%)", "setting": "[1]; [7]", "value": "1520 (100.8) ng/mL"}, {"measurement": "tmax, median (range)", "setting": "[1]; [7]", "value": "3.77 (3.50–4.05) hours"}, {"measurement": "AUC0–τ, Geo mean (GeoCV%)", "setting": "[1]; [8]", "value": "31,300 (55.8) ng∙h/mL"}, {"measurement": "Accumulation ratio (Cmax), Geo mean (GeoCV%)", "setting": "[1]; [8]", "value": "2.51 (77.8)"}, {"measurement": "Cmax, GeoMean (GeoCV%)", "setting": "[1]; [8]", "value": "1920 (48.5) ng/mL"}, {"measurement": "tmax, median (range)", "setting": "[1]; [8]", "value": "4.00 (2.95–6.10) hours"}, {"measurement": "AUC0–τ, Geo mean (GeoCV%)", "setting": "[1]; [9]", "value": "39,700 (52.3) ng∙h/mL"}, {"measurement": "Accumulation ratio (Cmax), Geo mean (GeoCV%)", "setting": "[1]; [9]", "value": "2.12 (67.9)"}, {"measurement": "Cmax, GeoMean (GeoCV%)", "setting": "[1]; [9]", "value": "2110 (39.6) ng/mL"}, {"measurement": "tmax, median (range)", "setting": "[1]; [9]", "value": "5.48 (3.57–6.08) hours"}, {"measurement": "AUC0–τ, Geo mean (GeoCV%)", "setting": "[1]; [10]", "value": "41,400 (34.5) ng∙h/mL"}, {"measurement": "Accumulation ratio (Cmax), Geo mean (GeoCV%)", "setting": "[1]; [10]", "value": "2.20 (97.9)"}, {"measurement": "Cmax, GeoMean (GeoCV%)", "setting": "[1]; [10]", "value": "2490 (9.4) ng/mL"}, {"measurement": "tmax, median (range)", "setting": "[1]; [10]", "value": "2.50 (2.00–3.00) hours"}, {"measurement": "Area under the curve on day 15", "setting": "[1]; highest doses of 240–380 mg", "value": "> 30,000 ng h/mL"}, {"measurement": "Pharmacokinetic profile combined with tamoxifen versus monotherapy", "setting": "[1]; in vivo", "value": "similar"}, {"measurement": "Accumulation on day 15 after repeated doses", "setting": "[1]; monotherapy", "value": "2.12–3.38 fold"}, {"measurement": "Apparent oral clearance (CL/f)", "setting": "[1]; monotherapy", "value": "~ 6 L/h"}, {"measurement": "Terminal half-life", "setting": "[1]; monotherapy", "value": "~ 30 h"}, {"measurement": "Median time to maximum plasma concentration (tmax)", "setting": "[1]; monotherapy, across doses", "value": "3.08 to 6.28", "unit": "h"}, {"measurement": "Dose proportionality of M2698 exposure", "setting": "[1]; monotherapy, single and multiple administrations", "value": "exposure increased proportionally with dose"}, {"measurement": "M2698 exposure in combination with trastuzumab", "setting": "[1]; versus monotherapy", "value": "relatively higher"}, {"measurement": "AUC giving 70% inhibition of pS6 in tumor tissue", "setting": "[2]; Emax model", "value": "15,174 h.ng/mL"}, {"measurement": "AUC giving 80% inhibition of pS6 in tumor tissue", "setting": "[2]; Emax model", "value": "32,087 h.ng/mL"}, {"measurement": "Dose giving 70% inhibition of pS6 in tumor tissue", "setting": "[2]; log-linear regression model", "value": "~ 160 mg"}, {"measurement": "Dose giving 80% inhibition of pS6 in tumor tissue", "setting": "[2]; log-linear regression model", "value": "~240", "unit": "mg"}, {"measurement": "Inhibition of pS6 levels in tumor tissue", "setting": "[2]; paired biopsies, 28 patients", "value": "dose- and concentration-dependent inhibition"}, {"measurement": "Changes in mean electrocardiogram data", "setting": "[3]; across all cohorts", "value": "no clinically relevant changes"}, {"measurement": "Correlation between exposure and fasting glucose levels", "setting": "[3]; in vivo", "value": "no correlation"}, {"measurement": "Blood–brain barrier crossing", "setting": "[4]", "value": "capacity to cross the blood–brain barrier"}, {"measurement": "Inhibition of pS6 in tumor tissue", "setting": "pS6 in tumor tissue", "value": "dose-dependently inhibits pS6 in tumor tissue"}]}
